Assay results from US12559789B2, “Method of targeting patient-specific oncogenes in extrachromosomal DNA to treat glioblastoma” (The Jackson Laboratory, priority 2017, dated 2026).
“Also recorded” adds a separate entry of the source.

Assays:
Format in all cases: in vivo, mouse
HF3035 PDX = assay: Survival of HF3035 PDX mice treated with capmatinib (Kaplan-Meier, log-rank); settings: single agent, 30 mg/kg daily oral doses, log-rank test
[1] = LC-MS/MS quantitation of capmatinib in plasma and tumor tissue of HF3077 PDX (brain penetrance); settings: 2 h after the last 30 mg/kg oral dose
Method: To evaluate brain penetrance of capmatinib, the inventors drew blood samples two hours after administration of the last capmatinib 30 mg/kg dose, sacrificed the animals, harvested brains, and froze 2 mm coronal sections in OCT. The inventors dissected tumor tissue from the frozen blocks. The inventors determined capmatinib concentration in homogenized tumor tissue and plasma for three treated animals and one control was quantified by LC-MS/MS. For mouse plasma sample analysis, the inventors precipitated 25 μL of each sample with 200 μL of acetonitrile. This suspension was vortexed for 30 min and centrifuged at 4k rpm for 15 min, after which 100 μL of the extract was aliquoted and mixed with 200 μL of acetonitrile/water (1/2, v/v) prior to LC-MS/MS analysis. The extracted plasma samples were analyzed on a Waters Acquity UPLC system coupled with a Waters Xevo TQ-S triple quadrupole mass spectrometer operated at positive mode. The capillary voltage was set to 0.5 kv and collision energy to 32 eV. […] The mobile phase A was 0.1% acetic acid/water and B was 0.1% acetic acid/acetonitrile. The LC gradient was 10% B (0-0.3 min), 10-95% B (0.3-1.3 min), 95% B (1.3-1.7 min), 10% B (1.7-2.0 min) and the flow rate was 0.5 mL/min. The column temperature was 40° C. The injection volume was 2 μL. […] The tissue homogenates were analyzed by using the same method as described above.

HF3077 PDX = assay: Survival of orthotopic HF3077 PDX mice treated with capmatinib (Kaplan-Meier, log-rank); settings: single agent, 30 mg/kg daily oral doses, log-rank test, significance P<0.05
Text: Orthotopic xenografts: Following IACUC guidelines in an institutionally approved animal use protocol, the inventors implanted the GBM neurosphere cell suspensions into 8-week old female nude mice (NCRNU, Taconic Farms) (i.e. immunodeficient mice) using the protocol described in Berezovsky, A. D. et al. SOX2 promotes malignancy in glioblastoma by regulating plasticity and astrocytic differentiation, Neoplasia 16, 193-206 e25 (2014), which is incorporated herein by reference. It should be noted that other “nude” or “immunodeficient” mice may be used in the present invention, as would be apparent to those skilled in the art. Thus, the present invention is not limited to the specific nude mice used in this experiment. […] Animals were monitored daily by an observer blinded to the group allocation and sacrificed upon first signs of neurological deficit or weight loss greater than 20%. […]
The inventors treated HF3077 PDXs with capmatinib (purchased from Matrix Scientific Products (Columbia, SC)) suspensions in 0.5% methylcellulose/0.1% Tween 80 were prepared every week and administered by oral gavage using a 20 g×1.5″ gavage needle (Cadence) at a dose of 30 mg/kg once a day (5 days/week) until the end of the study. […] Animals were monitored daily and sacrificed upon first signs of neurological deficit or weight loss greater than 20%. […]

CNC(=O)c1ccc(-c2cnc3ncc(Cc4ccc5ncccc5c4)n3n2)cc1F [capmatinib, Capmatinib]
survival of HF3035 PDX (HF3035 PDX): did not increase survival
concentration of drug in the brain tumor [1]: relatively low concentration
survival of HF3077 PDX (HF3077 PDX): significant survival benefit; also recorded: increases survival of HF3077 PDX
